Columns and labels:
[1] = system: rat embryonic myoblastic H9C2 cells; test: H2O2-induced necrosis, LDH release assay; type: cell-based; conditions: 10 μM, 2 hours pretreatment, 800 μM H2O2 for 24 hours, FIG. 17
Description: The rat embryonic myoblastic H9C2 cells were cultured at 10,000 cells/well in 96-well-plates for 24 hours at 37° C./5% CO2. […] LB corresponds to cells treated with a lysis buffer (100% of cell death). Cell cytotoxicity was determined by a colorimetric assay quantitatively measuring lactate dehydrogenase (LDH) released […].

[2] = system: Porcine LLC-PK1 cells (kidney proximal tubule cell line); test: Cold-induced cell death (cold storage), MTS viability assay; type: cell-based; conditions: 0.01-50.00 μM, 24 hours at 4° C., FIGS. 16a, 16b
Description: At it was previously shown (Ahlenstiel et al. Transplantation […], 81(2), 231-239), cold storage induces a cell-death process. Porcine LLC-PK1 cells (kidney proximal tubule cell line) were stored at approximately 4° C. during 24 hours with or without the tested molecules. […] Cells were then incubated at 37° C., 5% CO2 before performing MTS viability assay. Cell viability was monitored using CellTiter 96® AQueous Non-Radioactive Cell Proliferation Assay (Promega, Fitchburg, WI, USA), based on the water-soluble tetrazolium compound MTS (3-[4,5-dimethylthiazol-2-yl]-5-[3-carboxymethoxy-phenyl]-2-[4-sulfophenyl]-2H-tetrazolium, inner salt) according to the manufacturers instructions.

[3] = system: Human retinal pigment epithelial cell line, ARPE-19; conditions: 200 μM, Hanus et al. 2016; cited from earlier work

| SMILES | protection from death induced by H2O2 (LDH release) [1] | protection from death induced by cold storage [2] | inhibition of NaIO3-induced necroptosis in retinal pigment epithelial cell line [3] |
| --- | --- | --- | --- |
| CN1C(=O)NC(Cc2c[nH]c3c(Cl)cccc23)C1=O (stereo not drawn) [Nec-1s, Necrostatin-1s, reference compound] | less effective | inactive |  |
| CN1C(=O)C(Cc2c[nH]c3ccccc23)NC1=S (stereo not drawn) [necrostatin-1] |  |  | inhibited |

Source: patent US11819492B2, “Natural product derivatives for inhibiting cellular necroptosis, ferroptosis and oxytosis” (Institut National de la Sante et de la Recherche Medicale …, priority 2016, dated 2023)
